# Results as given in publication PMC6628320, “Poly-Saturated Dolichols from Filamentous Fungi Modulate Activity of Dolichol-Dependent Glycosyltransferase and Physical Properties of Membranes” (International Journal of Molecular Sciences, 2019).
# Tests used:
# Test in all cases: radiometric GDP[…]mannose transfer, membrane fraction, organic-phase counting
# Type in all cases: biochemical
# Details in all cases: GDP[14C]mannose co-substrate, 10 mM MgCl2, 0.1% Nonidet P-40, pH 7.4, 30 °C, 5 min; 50 µL assay (amount, not concentration)
# [1] = target: T1, TrDPMS-1,3 (T. reesei Dpm1,3 expressed in S. cerevisiae) (Trichoderma reesei, UniProt G0R8U7)
# T1 construct: dpm1Tr (p415 GPD LEU) and dpm3Tr (pESC-URA) in S. cerevisiae dpm1dr∆ mutant; yeast membrane fraction; Dpm2 omitted; with Dolichol-phosphate mannosyltransferase subunit 3
# T1 sequence (G0R8U7 entry or part of it): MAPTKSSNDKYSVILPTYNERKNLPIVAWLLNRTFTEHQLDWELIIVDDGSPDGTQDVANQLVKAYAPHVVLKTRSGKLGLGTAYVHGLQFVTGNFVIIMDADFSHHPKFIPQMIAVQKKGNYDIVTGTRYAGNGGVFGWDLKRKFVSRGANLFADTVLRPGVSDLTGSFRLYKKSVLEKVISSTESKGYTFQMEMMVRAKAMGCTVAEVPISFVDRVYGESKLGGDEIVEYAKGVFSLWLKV
# T1 sequence (C6KF57 entry or part of it, further chain): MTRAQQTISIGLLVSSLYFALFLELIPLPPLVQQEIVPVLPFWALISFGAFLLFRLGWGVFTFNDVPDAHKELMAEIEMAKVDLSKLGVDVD
# [2] = target: T2, ScDPMS (DPMS from S. cerevisiae) (Saccharomyces cerevisiae, UniProt P14020)
# T2 construct: gene DPM1; native enzyme in yeast membrane fraction, not purified; Type I, exclusively Dpm1 subunit
# T2 sequence (P14020 2-267): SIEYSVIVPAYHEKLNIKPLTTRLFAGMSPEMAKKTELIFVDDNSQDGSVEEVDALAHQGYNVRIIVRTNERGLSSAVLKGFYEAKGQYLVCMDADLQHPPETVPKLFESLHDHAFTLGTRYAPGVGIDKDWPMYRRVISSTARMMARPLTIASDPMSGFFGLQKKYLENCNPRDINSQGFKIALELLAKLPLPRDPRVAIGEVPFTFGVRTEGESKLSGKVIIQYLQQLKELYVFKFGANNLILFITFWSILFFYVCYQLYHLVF
# [3] = target: T3, TrDPMS (DPMS from T. reesei) (Trichoderma reesei, UniProt G0R8U7)
# T3 construct: gene dpm1; native Dpm1/Dpm2/Dpm3 complex in the membrane fraction of T. reesei, not purified; with Dolichol phosphate-mannose biosynthesis regulatory protein; Dolichol-phosphate mannosyltransferase subunit 3
# T3 sequence (G0R8U7 1-243): as the sequence (G0R8U7 entry or part of it) above
# T3 sequence (C6KF57 1-92 partner): as the sequence (C6KF57 entry or part of it, further chain) above
# T3 sequence (C6KF56 1-80 partner): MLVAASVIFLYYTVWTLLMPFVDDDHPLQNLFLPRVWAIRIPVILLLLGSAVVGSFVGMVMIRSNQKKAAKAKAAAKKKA
smiles,measurement,setting,value
CC(C)=CCC/C(C)=C/CC/C(C)=C/CC/C(C)=C\CC/C(C)=C\CC/C(C)=C\CC/C(C)=C\CC/C(C)=C\CC/C(C)=C\CC/C(C)=C\CCC(C)CCOP(=O)(O)O (stereo not drawn) [Dol-P11],S. cerevisiae / Km,[1],730 ng
same,S. cerevisiae / Km,[2],730 ng
same,T. reesei / Km,[3],3500 ng
